Measurements as given in ChEMBL document CHEMBL2169830, “Identification, synthesis, and biological evaluation of the metabolites of 3-amino-6-(3'-aminopropyl)-5H-indeno[1,2-c]isoquinoline-5,11-(6H)dione (AM6-36), a promising rexinoid lead compound for the development of cancer chemotherapeutic and chemopreventive agents” (J Med Chem, 2012).

Experiments:
[1] = test system: Liver microsomes; assay: Drug metabolism in human liver microsomes assessed as formation of 6-(3-hydroxypropyl)-3-amino-5H-indeno[1,2-c]-isoquinoline-5,11(6H)-dione at 1 uM preincubated for 10 mins prior to NADPH addition measured 60 mins post NADPH addition; format: ADME, Microsome; conditions: 1 h
[2] = Drug metabolism in Sprague-Dawley rat assessed as parent compound level in liver at 40 mg/kg, po administered 3 days; format: ADME, organism-based; parameters: dose 40 mg/kg, route oral; conditions: read-out: Drug metabolism
[3] = Drug metabolism in Sprague-Dawley rat assessed as N-[6-(3-Hydroxypropyl)-5,11-dioxo-6,11-dihydro-5Hindeno[1,2-c]isoquinolin-3-yl]acetamide level in mammary gland at 40 mg/kg, po administered 3 days; format: ADME, organism-based; parameters: dose 40 mg/kg, route oral; conditions: in vivo, 72 h
[4] = Drug metabolism in Sprague-Dawley rat assessed as N-[6-(3-Aminopropyl)-5,11-dioxo-6,11-dihydro-5H-indeno- [1,2-c]isoquinolin-3-yl]acetamide level in mammary gland at 40 mg/kg, po administered 3 days; format: ADME, organism-based; parameters: dose 40 mg/kg, route oral; conditions: in vivo, 72 h
[5] = test system: Serum; assay: Drug metabolism in Sprague-Dawley rat assessed as N-[6-(3-Hydroxypropyl)-5,11-dioxo-6,11-dihydro-5Hindeno[1,2-c]isoquinolin-3-yl]acetamide level in serum at 40 mg/kg, po administered 3 days; format: ADME, organism-based; parameters: dose 40 mg/kg, route oral; conditions: in vivo, 72 h
[6] = test system: Hepatocyte; assay: Drug metabolism in human hepatocytes assessed as formation of 3-Amino-11-hydroxy-6-(3-hydroxypropyl)-6,11-dihydro-5H-5Hindeno[1,2-c]isoquinolin-5-one at 50 uM after 4 hrs; format: ADME, cell-based
[7] = Cytotoxicity against african green monkey COS1 cells assessed as cell survival at 50 uM relative to control; format: cell-based; conditions: chlorocebus aethiops, COS-1 cells; read-out: Survival
[8] = Cytotoxicity against human HEK293 cells assessed as cell survival at 50 uM relative to control; format: cell-based; conditions: read-out: Survival
[9] = test system: Liver microsomes; assay: Drug metabolism in human liver microsomes assessed as formation of 6-(3-hydroxypropyl)-3-amino-5H-indeno[1,2-c]-isoquinoline-5,11(6H)-dione at 1 uM after 60 mins in presence of NADPH and monoamine oxidase inhibitors clorgiline, pargyline; format: ADME, Microsome; conditions: 1 h
[10] = test system: Liver microsomes; assay: Drug metabolism in human liver microsomes assessed as formation of 3-Amino 6-(3-aminopropyl)-11-hydroxy-6,11-dihydro-5H-indeno[1,2-c]isoquinolin-5-one at 1 uM preincubated for 10 mins prior to NADPH addition measured 60 mins post NADPH addition; format: ADME, Microsome; conditions: 1 h
[11] = test system: Liver; assay: Drug metabolism in Sprague-Dawley rat assessed as 3-Amino-11-hydroxy-6-(3-hydroxypropyl)-6,11-dihydro-5Hindeno[1,2-c]isoquinolin-5-one level in liver at 40 mg/kg, po administered 3 days; format: ADME, organism-based; parameters: dose 40 mg/kg, route oral; conditions: in vivo, 72 h
[12] = test system: Liver; assay: Drug metabolism in Sprague-Dawley rat assessed as N-[6-(3-Aminopropyl)-5,11-dioxo-6,11-dihydro-5H-indeno- [1,2-c]isoquinolin-3-yl]acetamide level in liver at 40 mg/kg, po administered 3 days; format: ADME, organism-based; parameters: dose 40 mg/kg, route oral; conditions: in vivo, 72 h
[13] = test system: Plasma; conditions: human, 10 µM
Description: Plasma protein binding in human plasma at 10 uM

[14] = Drug metabolism in Sprague-Dawley rat assessed as parent compound level in serum at 40 mg/kg, po administered 3 days; format: ADME, organism-based; parameters: dose 40 mg/kg, route oral; conditions: read-out: Drug metabolism
[15] = test system: Liver; assay: Drug metabolism in Sprague-Dawley rat assessed as 6-(3-Hydroxypropyl)-3-amino-5H-indeno[1,2- c]-isoquinoline-5,11(6H)dione level in liver at 40 mg/kg, po administered 3 days; format: ADME, organism-based; parameters: dose 40 mg/kg, route oral; conditions: in vivo, 72 h
[16] = test system: Hepatocyte; assay: Drug metabolism in human hepatocytes assessed as formation of 6-(3-aminopropyl)-3-((2R,3R,4S,5S,6R)-3,4,5-trihydroxy-6-(hydroxymethyl)tetrahydro-2H-pyran-2-ylamino)-5H-indeno[1,2-c]isoquinoline-5,11(6H)-dione at 50 uM after 4 hrs; format: ADME, cell-based
[17] = test system: Hepatocyte; assay: Drug metabolism in human hepatocytes assessed as formation of N-[6-(3-Hydroxypropyl)-5,11-dioxo-6,11-dihydro-5H-5Hindeno[ 1,2-c]isoquinolin 3-yl]acetamide at 50 uM after 4 hrs; format: ADME, cell-based
[18] = test system: Hepatocyte; assay: Drug metabolism in human hepatocytes assessed as formation of N-[6-(3-Aminopropyl)-11-hydroxy-5-oxo-6,11-dihydro-5H-5Hindeno[ 1,2-c]isoquinolin-3-yl]acetamide at 50 uM after 4 hrs; format: ADME, cell-based
[19] = test system: Serum; assay: Drug metabolism in Sprague-Dawley rat assessed as N-[6-(3-Aminopropyl)-5,11-dioxo-6,11-dihydro-5H-indeno- [1,2-c]isoquinolin-3-yl]acetamide level in serum at 40 mg/kg, po administered 3 days; format: ADME, organism-based; parameters: dose 40 mg/kg, route oral; conditions: in vivo, 72 h
[20] = test system: Hepatocyte; assay: Drug metabolism in human hepatocytes assessed as formation of 6-(3-Hydroxypropyl)-3-amino 5H-indeno[1,2c]-isoquinoline-5,11(6H)dione at 50 uM after 4 hrs; format: ADME, cell-based
[21] = biological target: T1, Retinoic acid receptor RXR-alpha (Homo sapiens, UniProt P19793); assay: Agonist activity at human RXRalpha expressed in african green monkey COS1 cells assessed as induction of RXRE transcriptional activity after 12 hrs by luciferase reporter gene assay; format: functional, cell-based, COS-1
T1 sequence (P19793 whole entry): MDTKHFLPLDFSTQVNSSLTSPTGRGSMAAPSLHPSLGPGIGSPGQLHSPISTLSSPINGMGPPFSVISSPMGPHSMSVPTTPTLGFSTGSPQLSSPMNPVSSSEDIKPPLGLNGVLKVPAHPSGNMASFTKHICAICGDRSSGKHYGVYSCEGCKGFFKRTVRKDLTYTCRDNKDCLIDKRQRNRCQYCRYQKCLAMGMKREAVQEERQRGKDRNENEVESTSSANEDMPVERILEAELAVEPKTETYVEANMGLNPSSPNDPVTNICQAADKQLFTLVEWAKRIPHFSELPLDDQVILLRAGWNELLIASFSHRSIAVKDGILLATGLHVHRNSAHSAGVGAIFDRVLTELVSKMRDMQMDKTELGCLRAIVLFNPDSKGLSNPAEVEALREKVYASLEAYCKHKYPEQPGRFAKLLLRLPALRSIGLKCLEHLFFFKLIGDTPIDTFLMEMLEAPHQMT

[22] = test system: Serum; assay: Drug metabolism in Sprague-Dawley rat assessed as 3-Amino-11-hydroxy-6-(3-hydroxypropyl)-6,11-dihydro-5Hindeno[1,2-c]isoquinolin-5-one level in serum at 40 mg/kg, po administered 3 days; format: ADME, organism-based; parameters: dose 40 mg/kg, route oral; conditions: in vivo, 72 h
[23] = test system: Serum; assay: Drug metabolism in Sprague-Dawley rat assessed as 3-Amino-6-(3-aminopropyl)-11-hydroxy-6,11-dihydro-5Hindeno[1,2-c]isoquinolin-5-one level in serum at 40 mg/kg, po administered 3 days; format: ADME, organism-based; parameters: dose 40 mg/kg, route oral; conditions: in vivo, 72 h
[24] = test system: Liver microsomes; assay: Half life in human liver microsomes at 1 uM; format: ADME, Microsome
[25] = test system: Liver microsomes; assay: Metabolic stability in human liver microsomes assessed as GSH conjugate formation at 10 uM; format: ADME, Microsome
[26] = test system: HEK293; assay: Inhibition of TNFalpha-induced human NFkappaB activity in HEK293 cells at 50 uM incubated for 6 hrs followed by compound wash out measured after 5 mins by luciferase assay; format: cell-based
[27] = Drug metabolism in Sprague-Dawley rat assessed as parent compound level in mammary gland at 40 mg/kg, po administered 3 days; format: ADME, organism-based; parameters: dose 40 mg/kg, route oral; conditions: read-out: Drug metabolism
[28] = test system: Hepatocyte; assay: Drug metabolism in human hepatocytes assessed as formation of 3-Amino 6-(3-aminopropyl)-11-hydroxy-6,11-dihydro-5H-indeno[1,2-c]isoquinolin-5-one at 50 uM after 4 hrs; format: ADME, cell-based
[29] = Inhibition of TNFalpha-induced human NFkappaB activity in HEK293 cells incubated for 6 hrs followed by compound wash out measured after 5 mins by luciferase assay; format: cell-based
[30] = Drug metabolism in Sprague-Dawley rat assessed as 6-(3-Hydroxypropyl)-3-amino-5H-indeno[1,2- c]-isoquinoline-5,11(6H)dione level in mammary gland at 40 mg/kg, po administered 3 days; format: ADME, organism-based; parameters: dose 40 mg/kg, route oral; conditions: in vivo, 72 h
[31] = test system: Liver; assay: Drug metabolism in Sprague-Dawley rat assessed as 3-Amino-6-(3-aminopropyl)-11-hydroxy-6,11-dihydro-5Hindeno[1,2-c]isoquinolin-5-one level in liver at 40 mg/kg, po administered 3 days; format: ADME, organism-based; parameters: dose 40 mg/kg, route oral; conditions: in vivo, 72 h
[32] = Drug metabolism in Sprague-Dawley rat assessed as 3-Amino-6-(3-aminopropyl)-11-hydroxy-6,11-dihydro-5Hindeno[1,2-c]isoquinolin-5-one level in mammary gland at 40 mg/kg, po administered 3 days; format: ADME, organism-based; parameters: dose 40 mg/kg, route oral; conditions: in vivo, 72 h
[33] = Drug metabolism in Sprague-Dawley rat assessed as 3-Amino-11-hydroxy-6-(3-hydroxypropyl)-6,11-dihydro-5Hindeno[1,2-c]isoquinolin-5-one level in mammary gland at 40 mg/kg, po administered 3 days; format: ADME, organism-based; parameters: dose 40 mg/kg, route oral; conditions: in vivo, 72 h
[34] = test system: Hepatocyte; assay: Drug metabolism in human hepatocytes assessed as formation of N-[6-(3-Aminopropyl)-5,11-dioxo-6,11-dihydro-5H-indeno-[1,2-c]isoquinolin-3-yl]acetamide at 50 uM after 4 hrs; format: ADME, cell-based
[35] = test system: Liver; assay: Drug metabolism in Sprague-Dawley rat assessed as N-[6-(3-Hydroxypropyl)-5,11-dioxo-6,11-dihydro-5Hindeno[1,2-c]isoquinolin-3-yl]acetamide level in liver at 40 mg/kg, po administered 3 days; format: ADME, organism-based; parameters: dose 40 mg/kg, route oral; conditions: in vivo, 72 h
[36] = test system: Serum; assay: Drug metabolism in Sprague-Dawley rat assessed as 6-(3-Hydroxypropyl)-3-amino-5H-indeno[1,2- c]-isoquinoline-5,11(6H)dione level in serum at 40 mg/kg, po administered 3 days; format: ADME, organism-based; parameters: dose 40 mg/kg, route oral; conditions: in vivo, 72 h

SMILES: NCCCn1c2c(c3ccc(N)cc3c1=O)C(=O)c1ccccc1-2
- Drug metabolism [1]: Active
- concentration at 72 h [2]: 4300 ng/g
- Drug metabolism [3]: Not Active
- Drug metabolism [4]: Not Active
- Drug metabolism [5]: Not Active
- Drug metabolism [6]: Active
- viability at 50 µM [7]: 58.6%
- viability at 50 µM [8]: 109%
- Drug metabolism [9]: Active
- Drug metabolism [10]: Active
- Drug metabolism [11]: Active
- Drug metabolism [12]: Active
- PPB [13]: 75%
- concentration at 72 h [14]: 800 ng/mL
- Drug metabolism [15]: Active
- Drug metabolism [16]: Active
- Drug metabolism [17]: Active
- Drug metabolism [18]: Active
- Drug metabolism [19]: Active
- Drug metabolism [20]: Active
- EC50 [21]: 3.37 µM
- Drug metabolism [22]: Not Active
- Drug metabolism [23]: Not Active
- t1/2 [24]: 2.17 h
- Stability [25]: Stable
- inhibition [26]: 84.9%
- concentration at 72 h [27]: 300 ng/g
- Drug metabolism [28]: Active
- IC50 [29]: 26.3 µM
- Drug metabolism [30]: Not Active
- Drug metabolism [31]: Active
- Drug metabolism [32]: Not Active
- Drug metabolism [33]: Not Active
- Drug metabolism [34]: Active
- Drug metabolism [35]: Active
- Drug metabolism [36]: Not Active
